Data as given in ChEMBL document CHEMBL1157539, “Thousands of chemical starting points for antimalarial lead identification” (Nature, 2010).

Test system: Plasmodium falciparum
Experiment: GSK_TCMDC: Inhibition of Plasmodium falciparum 3D7 in whole erythrocytes, using parasite LDH activity as an index of growth.
Type: functional, organism-based
Details: Plasmodium falciparum, 3D7

| SMILES | XC50 [nM] |
| --- | --- |
| COc1ccc(N2CCN(CCCCNC(=O)c3ccc(NC(=O)c4cc(Cl)cc(Cl)c4)cc3)CC2)c(OC)c1 | 299 |
| Cc1cccc(NC(c2cccs2)c2c(NC(=O)c3ccccc3)sc(C)c2C)n1 (stereo not drawn) | 832 |
| Cc1nc2c(-n3cc(Cn4ccnc4)c4ccccc43)ncnc2n1-c1ccc(Cl)cc1Cl | 994 |
| COc1cccc(NC(=O)c2cc(Br)cc(N3CCN(c4ccncc4)CC3)c2)c1 | 772 |
| C=CCN1C(=O)C(=Cc2cc(Br)ccc2O)SC1=Nc1ccccc1 | 900 |
| O=S(=O)(Nc1cccc(CCN2CCC(N3CCCCC3)CC2)c1)c1cccc(C(F)(F)F)c1 | 976 |
| CCOC(=O)c1ccc(NC(=O)Nc2ccc(-c3cccc(-c4nc5cccc(C)c5[nH]4)c3)cc2)cc1 | 145 |
| Cc1ccc(N2CCc3c(-c4cc5cccnc5nc4C)cc(C)nc32)c(Cl)c1 | 577 |
| Cc1cc(N[C@@H](CC(C)C)C(=O)NCCCOC(C)C)nc(NCCc2ccc(F)cc2)n1 | 1250 |
| CC(C)CCN1CCC(Oc2ccc(NC(=O)c3ccc4ncccc4c3)cc2Cl)C1 (stereo not drawn) | 974 |
| N=C(N)NC(=O)Nc1ccc(Cl)c(Cl)c1 | 1040 |
| CCN(CC)CCNc1nc(C=Cc2ccc(Cl)cc2)nc2cc3ccccc3cc12 | 147 |
| CN1CCCN(c2ccnc3cc4c(cc23)N(C(=O)c2ccc(Cl)cc2Cl)CC4)CC1 | 812 |
| O=[N+]([O-])c1cccc(CNCC2CCN(Cc3ccc4ccccc4c3)CC2)c1 | 876 |
| COc1ccc(CCN2CCC(NCc3cccc(N(C)C)c3)CC2)cc1 | 1320 |
| COc1cc2nc(N3CCN(C(=O)c4ccco4)CC3)nc(NCc3ccccc3)c2cc1OC | 167 |
| N#CCCN1CCN(Cc2cccc(-c3ccc(-c4nc5cc(C(F)(F)F)ccc5[nH]4)cc3)c2)CC1 | 744 |
| Cc1noc(C)c1CN1Cc2ccccc2OC2(CCN(Cc3c[nH]c4cnccc34)CC2)C1 | 1070 |
| Cc1nc(NCc2ccccc2)cc(NCC(O)c2ccc(O)cc2)n1 (stereo not drawn) | 1230 |

| SMILES | XC50 [nM] |
| --- | --- |
| N#CCCN1CCN(Cc2cccc(-c3ccc(-c4nc5ccccc5[nH]4)cc3)c2)CC1 | 1020 |
| CC[C@H]1CN2CC[C@H]1C[C@H]2[C@H](O)c1cc(-c2ccc(F)cc2C)nc2ccc(OC)cc12 | 157 |
| CC(C)NC(=O)c1cccc(-c2ccc(OCCN3CCCC3c3cc4ccccc4[nH]3)cc2)c1 (stereo not drawn) | 958 |
| CCN(CC)/C(=N\C(=N)NCCCCCCNC(=N)/N=C(\Nc1ccc(Cl)cc1)N(CC)CC)Nc1ccc(Cl)cc1 | 927 |
| COc1ccc2nccc([C@@H](O)CN3CCC(NCc4cc5cc(C)ccc5s4)CC3)c2c1 | 636 |
| Cc1ccc(/C=C/C(=O)NC2CCC(N3CCC(c4ccccc4C)CC3)CC2)cc1C (stereo not drawn) | 809 |
| Cc1cccc2nc(-c3cccc(-c4cccc(NC(=O)Nc5ccc(Cl)c(Cl)c5)c4)c3)[nH]c12 | 375 |
| CCCN(CCC)CCCN(CCCN(CCC)CCC)c1cc(C)nc(Nc2ccc(Cl)cc2)n1 | 168 |
| CCNc1cc(C(=O)N[C@@H](Cc2ccccc2Cl)[C@H](O)CNC(C)CCCC(C)C)cc(N2CCCCS2(=O)=O)c1 (stereo partly drawn) | 928 |
| Clc1cccc(Nc2ccc3c(N4CCCCC4)ncnc3n2)c1 | 577 |
| COc1cccc2c(NCc3ccccc3)nc(NCCCN3CCCCC3C)nc12 (stereo not drawn) | 911 |
| CC/N=C(/NCCCCCCN/C(=N/CC)NCc1ccccc1)NCc1ccccc1 | 702 |
| Cc1cc(Cl)c(S(=O)(=O)N2CCc3ccccc32)cc1OCC(=O)NC1CCCCC1 | 302 |
| O=C(/C=C/c1ccc(Cl)c(Cl)c1)N1CCC(CN2CCC(c3cn(CC(=O)N4CCCCC4)c4ccccc34)CC2)CC1 | 750 |
| c1ccc(-c2cc(NCCCn3ccnc3)nc(-c3cccnc3)n2)cc1 | 977 |
| COc1ccc(C(=O)Nc2ccc(Nc3nc(C)cc(N(C)C)n3)cc2)c(OC)c1 | 868 |
| Cc1cc(OCCCN2CCC(NS(=O)(=O)c3ccc(Cl)c(Cl)c3)CC2)c2ccccc2n1 | 897 |
| CCc1ccc(C(=O)Nc2cccc(CN3CCCN(Cc4ccc(O)cc4)CC3)c2)cc1 | 1030 |
| CCCCC(N)COc1cccc2c(-c3ccncc3)c(-c3cccc(NC(=O)Nc4ccccc4)c3)nn12 (stereo not drawn) | 878 |
